# Results reported in US11813340B2, “PSMA targeted radiohalogenated urea-polyaminocarboxylates for cancer radiotherapy” (The Johns Hopkins University, priority 2018, dated 2023).
# Where two headings read alike, the source gives them in different places.
# System: PSMA + PC3-PIP and PSMA-PC3-flu flank xenografts
# Settings: for Biodistribution, Blood / Biodistribution, Flu tumor / Biodistribution, Kidneys / Biodistribution, Lacrimal glands / Biodistribution, Pip (tumor) / Biodistribution, Salivary glands / Biodistribution, Spleen / Biodistribution, Stomach: without cold blocking agent
# Experimental: Final compounds were purified by HPLC. […] Organs were harvested 1, 4, and 24 h post-injection (n=5 per time point).
smiles,measurement,setting,value
O=C([O-])CN1CCN(CC(=O)[O-])CCN(CC(=O)NCCCCC(=O)N(CCCC[C@H](NC(=O)N[C@@H](CCC(=O)O)C(=O)O)C(=O)O)Cc2ccc([125I])cc2)CCN(CC(=O)[O-])CC1.[Lu+3] [[^125I]VK-02-90-Lu],"Biodistribution, Blood",1 H,1.2 ± 0.4 % injected dose/g
same,"Biodistribution, Flu tumor",1 H,0.9 ± 0.3 % injected dose/g
same,"Biodistribution, Kidneys",1 H,180 ± 36 % injected dose/g
same,"Biodistribution, Lacrimal glands",1 H,4.1 ± 1.3 % injected dose/g
same,"Biodistribution, Pip (tumor)",1 H,51 ± 8.5 % injected dose/g
same,"Biodistribution, Salivary glands",1 H,1.0 ± 0.3 % injected dose/g
same,"Biodistribution, Spleen",1 H,7.4 ± 2.6 % injected dose/g
same,"Biodistribution, Stomach",1 H,0.7 ± 0.4 % injected dose/g
same,"Biodistribution, Blood",4 H,0.06 ± 0.06 % injected dose/g
same,"Biodistribution, Flu tumor",4 H,0.3 ± 0.5 % injected dose/g
same,"Biodistribution, Kidneys",4 H,18.2 ± 4.9 % injected dose/g
same,"Biodistribution, Lacrimal glands",4 H,0.3 ± 0.1 % injected dose/g
same,"Biodistribution, Pip (tumor)",4 H,27.8 ± 17 % injected dose/g
same,"Biodistribution, Salivary glands",4 H,0.1 ± 0.05 % injected dose/g
same,"Biodistribution, Spleen",4 H,0.6 ± 0.2 % injected dose/g
same,"Biodistribution, Stomach",4 H,0.1 ± 0.1 % injected dose/g
same,"Biodistribution, Blood",24 H,0.1 ± 0.01 % injected dose/g
same,"Biodistribution, Flu tumor",24 H,0.03 ± 0.01 % injected dose/g
same,"Biodistribution, Kidneys",24 H,3.3 ± 1.1 % injected dose/g
same,"Biodistribution, Lacrimal glands",24 H,0.06 ± 0.03 % injected dose/g
same,"Biodistribution, Pip (tumor)",24 H,24.0 ± 6.2 % injected dose/g
same,"Biodistribution, Salivary glands",24 H,0.03 ± 0.01 % injected dose/g
same,"Biodistribution, Spleen",24 H,0.1 ± 0.06 % injected dose/g
same,"Biodistribution, Stomach",24 H,0.04 ± 0.01 % injected dose/g
same,"clearance from the spleen, salivary glands, lacrimal glands and kidneys",compared with [^125I]VK-02-90,faster clearance
